Patent US5147878A, “Aminoalkoxyphenyl derivatives, process of preparation and compositions containing the same” (Sanofi, priority 1986, dated 1992)
Where a name gives a salt, the structure may show the parent alone.

Tested on: isolated rat aorta
Assay: Calcium inhibitory properties: contractile response to potassium-induced depolarization on isolated rat aorta
Parameters: species or system isolated organ, male Wistar rats
Conditions: for activity at 0.1 µM / activity at 0.01 µM / activity at 1 µM / activity at 0.001 µM: Rattus norvegicus, 1 h, read-out: % of the maximum contractional effect; for % of the maximum contractional effect: 60 min; for activity at 0.001 µM: 10^-9 M
From the text: It is well established that the depolarization of a smooth muscle membrane by potassium renders the latter permeable to extracellular calcium and induces muscle contraction. Consequently, the measurement of the inhibition of the contractile response to depolarization by potassium, or the measurement of a relaxation of the tonic contraction on potassium depolarization, can represent an evaluation of the power of a compound as an inhibitor of the membrane permeability to Ca^++ ions. The technique used was as follows: The aorta was removed from male Wistar rats weighing approximately 300 g, and cut into strips approximately 40 mm long and 3 mm wide. These fragments were placed in a 25-ml isolated organ trough containing a modified Krebs-bicarbonate solution (112 mM NaCl; 5 mM KCl; 25 mM NaHCO3; 1 mM KH2 PO4; 1.2 mM MgSO4; 2.5 mM CaCl2; 11.5 mM glucose, distilled water to 1000 ml) through which a stream of 5-7% carbon dioxide in oxygen was passed, and maintained at 37° C. The preparation was connected to a force microsensor and the contractile response recorded after amplification on a recorder. A tension of 2 g was applied to the preparation. This tension was maintained for 60 minutes in the modified Krebs-bicarbonate solution, and contractions were then induced by replacing the Krebs-bicarbonate solution by a potassium-Krebs solution (17 mM NaCl; 100 mM KCl; 25 mM NaHCO3; 1 mM KH2 PO4; 1.2 mM MgSO4; 2.5 mM CaCl2; 11.5 mM glucose; distilled water to 1000 ml). When the contractile response of the preparation had become reproducible, a given amount of a compound of the invention was introduced into the bath. Sixty minutes later, a new spasm was induced by potassium depolarization. The results obtained on the aorta used in the experiment were then expressed as a percentage of the maximum contractional effect before incubation with the test substance. By way of examples, the results which follow were obtained, the compounds of formula (1) being in the form of the base, hydrochloride or oxalate.

[1] = head printed "10^-" (exponent missing; first of three columns before 10^-6 M)

COc1ccc(CCN(C)CCCCOc2ccc(S(=O)(=O)c3c(C(C)C)oc4ccccc34)cc2)cc1OC [Ex. 93, 2-Isopropyl-3-[4-{4-[N-methyl-N-(3,4-dimethoxy-β-phenethyl)amino]butyloxy}benzenesulphonyl]benzofuran acid oxalate]
activity at 0.1 µM (10^-7 M): 33.6% | activity at 0.01 µM (10^-8 M): 53.1%

CC(C)c1oc2ccccc2c1S(=O)(=O)c1ccc(OCCCNCCc2ccc3c(c2)OCO3)cc1.O=C(O)C(=O)O [Ex. 95, 2-Isopropyl-3-[4-{3-[N-[3-(1,3-benzodioxolyl)]-β-ethyl]amino]propyloxy}benzenesulphonyl benzofuran acid oxalate]
% of the maximum contractional effect (10^-6 M, 1 µM): 13.6% | % of the maximum contractional effect (10^-7 M, 0.1 µM): 50.6% | % of the maximum contractional effect (10^-8 M, 0.01 µM): 81.4%

COc1ccc(CCN(C)CCCOc2ccc(S(=O)(=O)c3nccn3C(C)C)cc2)cc1OC [Ex. 96, 1-isopropyl-2-[4-{3-[N-methyl-N-(3,4-dimethoxy-β-phenethyl)amino]propyloxy}benzenesulphonyl]imidazole dihydrochloride]
activity at 1 µM (10^-6 M): 92.4% | activity at 0.1 µM (10^-7 M): 87.3% | % of the maximum contractional effect [1]: 65.8%

COc1ccc(CCN(C)CCCOc2ccc(S(=O)(=O)c3nccn3Cc3ccccc3)cc2)cc1OC [Ex. 97, 1-benzyl-2-[4-{3-[N-methyl-N-(3,4-dimethoxy-β-phenethyl)amino]propyloxy}benzenesulphonyl]imidazole acid oxalate]
activity at 1 µM (10^-6 M): 66.7% | activity at 0.1 µM (10^-7 M): 87.5% | % of the maximum contractional effect [1]: 23.5%

COc1ccc(CCN(C)CCCOc2ccc(S(=O)(=O)c3cn[nH]c3C(C)C)cc2)cc1OC [Ex. 100, 4-[4-{3-[N-methyl-N-(3,4-dimethoxy-β-phenethyl)amino]propyloxy}benzenesulphonyl]-5-isopropyl-pyrazole acid oxalate]
activity at 1 µM (10^-6 M): 62.5% | activity at 0.1 µM (10^-7 M): 87.6% | % of the maximum contractional effect [1]: 15.1%

COc1ccc(CCN(C)CCCOc2ccc(S(=O)(=O)c3ccc4ccccc4c3)cc2)cc1OC [Ex. 103, 2-[4-{3-[N-methyl-N-(3,4-dimethoxy-β-phenethyl)amino]propyloxy}benzenesulphonyl]-naphthalene acid oxalate]
activity at 1 µM (10^-6 M): 16.8% | activity at 0.1 µM (10^-7 M): 62.8% | activity at 0.01 µM (10^-8 M): 83.3%

COc1ccc(CCN(C)CCCOc2ccc(S(=O)(=O)c3c(C(C)C)[nH]c4ccccc34)cc2)cc1OC [Ex. 105, 2-isopropyl-3-[4-{3-[N-methyl-N-(3,4-dimethoxy-β-phenethyl)amino]propyloxy}benzenesulphonyl]indole hemioxalate]
activity at 0.1 µM (10^-7 M): 11.9% | activity at 0.01 µM (10^-8 M): 62.9% | activity at 0.001 µM: 83.6%

CCCCN(CCCC)CCCOc1ccc(S(=O)(=O)c2c(C(C)C)[nH]c3ccccc23)cc1 [Ex. 106, 2-Isopropyl-3-{4-[3-(di-n-butylamino)propyloxy]benzenesulphonyl}indole acid]
activity at 1 µM (10^-6 M): 4.9% | activity at 0.1 µM (10^-7 M): 37.4% | activity at 0.01 µM (10^-8 M): 66%

COc1ccc(CCN(C)CCCOc2ccc(S(=O)(=O)c3c(C(C)C)n(C)c4ccccc34)cc2)cc1OC [Ex. 109, 1-methyl-2-isopropyl-3-[4-{3-[N-methyl-N-(3,4-dimethoxy-β-phenethyl)amino]propyloxy}benzenesulphonyl]indole]
activity at 1 µM (10^-6 M): 0% | activity at 0.1 µM (10^-7 M): 5.1% | activity at 0.01 µM (10^-8 M): 34.5% | activity at 0.001 µM: 71.4%

CCCCN(CCCC)CCCOc1ccc(S(=O)(=O)c2c(C(C)C)n(C)c3ccccc23)cc1 [Ex. 110, 1-Methyl-2-isopropyl-3-{4-[3-(di-n-butylamino)propyloxy]benzenesulphonyl}indole acid oxalate]
activity at 1 µM (10^-6 M): 0% | activity at 0.1 µM (10^-7 M): 15.1% | activity at 0.01 µM (10^-8 M): 71% | activity at 0.001 µM: 84.6%

COc1ccc(CN(C)CCCOc2ccc(S(=O)(=O)c3c(C(C)C)n(C)c4ccccc34)cc2)cc1OC [Ex. 111, 1-Methyl-2-isopropyl-3-[4-{3-[N-methyl-N-(3,4-dimethoxy-benzyl)amino]propyloxy}benzenesulphonyl]indole acid oxalate]
activity at 0.1 µM (10^-7 M): 11.8% | activity at 0.01 µM (10^-8 M): 25% | activity at 0.001 µM: 81.8%

CC(C)c1c(S(=O)(=O)c2ccc(OCCCNC(C)(C)C)cc2)c2ccccc2n1C [Ex. 112, 1-methyl-2-isopropyl-3-[4-{3-(tert-butylamino)propyloxy}benzenesulphonyl]indole]
activity at 1 µM (10^-6 M): 8.1% | activity at 0.1 µM (10^-7 M): 51.7% | activity at 0.01 µM (10^-8 M): 84.5%

COc1ccc(CCN(C)CCCOc2ccc(S(=O)(=O)c3c(C(C)C)c4ccccc4n3C)cc2)cc1OC [Ex. 113, 1-methyl-3-isopropyl-2-[4-{3-[N-methyl-N-(3,4-dimethoxy-β-phenethyl)amino]propyloxy}benzenesulphonyl]indole acid oxalate]
activity at 0.01 µM (10^-8 M): 41.1%

COc1ccc(CCN(C)CCCOc2ccc(S(=O)(=O)c3ccccc3C(C)C)cc2)cc1OC [Ex. 114, 2-isopropyl-1-[4-{3-[N-methyl-N-(3,4-dimethoxy-β-phenethyl)amino]propyloxy}benzenesulphonyl]benzene acid oxalate]
activity at 1 µM (10^-6 M): 3.7% | activity at 0.1 µM (10^-7 M): 21.7% | activity at 0.01 µM (10^-8 M): 59.3% | activity at 0.001 µM: 93.3%

CCCCN(CCCC)CCCOc1ccc(S(=O)(=O)c2ccccc2C(C)C)cc1 [Ex. 115, 2-Isopropyl-1-{4-[3-(di-n-butylamino)propyloxy]benzenesulphonyl}benzene acid oxalate]
activity at 0.1 µM (10^-7 M): 43.2% | activity at 0.001 µM: 89.1%

CCc1ccccc1S(=O)(=O)c1ccc(OCCCN(C)CCc2ccc(OC)c(OC)c2)cc1 [Ex. 116, 2-Ethyl-1-[4-{3-[N-methyl-N-(3,4-dimethoxy-β-phenethyl)amino]propyloxy}benzenesulphonyl]benzene acid oxalate]
activity at 0.1 µM (10^-7 M): 6% | activity at 0.01 µM (10^-8 M): 66.1% | activity at 0.001 µM: 84.8%

CCCCN(CCCC)CCCOc1ccc(S(=O)(=O)c2ccccc2CC)cc1 [Ex. 117, 2-Ethyl-1-{4-[3-(di-n-butylamino)propyloxy]benzenesulphonyl}benzene acid oxalate]
activity at 1 µM (10^-6 M): 4.2% | activity at 0.1 µM (10^-7 M): 43.4% | activity at 0.01 µM (10^-8 M): 85.1%

CC(C)c1ccccc1S(=O)(=O)c1ccc(OCCCNC(C)(C)C)cc1 [Ex. 118, 2-isopropyl-1-[4-{3-(tert-butylamino)propyloxy}benzenesulphonyl]benzene acid oxalate]
activity at 1 µM (10^-6 M): 2.7% | activity at 0.1 µM (10^-7 M): 52.2% | activity at 0.01 µM (10^-8 M): 92.3%

CCc1ccccc1S(=O)(=O)c1ccc(OCCCNC(C)(C)C)cc1 [Ex. 119, 2-ethyl-1-[4-{3-(tert-butylamino)propyloxy}benzenesulphonyl]benzene acid oxalate]
activity at 1 µM (10^-6 M): 32% | activity at 0.1 µM (10^-7 M): 83.3%

CCc1sc2c(c1S(=O)(=O)c1ccc(OCCCN(C)CCc3ccc(OC)c(OC)c3)cc1)CN(Cc1ccccc1Cl)CC2 [Ex. 120, 5-(2-chloro-benzyl)-2-ethyl-3-[4-{3-[N-methyl-N-(3,4-dimethoxy-β-phenethyl)amino]propyloxy}benzenesulphonyl]-4,5,6,7-tetrahydrothieno[3,2-c]pyridine oxalate]
activity at 1 µM (10^-6 M): 59.8% | activity at 0.1 µM (10^-7 M): 68.7% | activity at 0.01 µM (10^-8 M): 91.4%

CCCCN(CCCC)CCCOc1ccc(S(=O)(=O)c2c(CC)sc3c2CN(Cc2ccccc2Cl)CC3)cc1 [Ex. 121, 5-(2-chloro-benzyl)-2-ethyl-3-{4-[3-(di-n-butylamino)propyloxy]benzenesulphonyl}-4,5,6,7-tetrahydro-thieno[3,2-c]pyridine dioxalate]
activity at 1 µM (10^-6 M): 66.2% | activity at 0.1 µM (10^-7 M): 77.5% | activity at 0.01 µM (10^-8 M): 85.7%

CC(C)c1cc2ccccn2c1S(=O)(=O)c1ccc(OCCCNC(C)(C)C)cc1 [Ex. 122, 2-isopropyl-3-{4-[3-tert-butylamino)propyloxy]benzenesulphonyl}indolizine hydrochloride]
activity at 1 µM (10^-6 M): 5.4% | activity at 0.1 µM (10^-7 M): 28.1% | activity at 0.01 µM (10^-8 M): 76.1% | activity at 0.001 µM: 92.5%

CCCCN(CCCC)CCCOc1ccc(S(=O)(=O)c2c(CC)cc3ccccn23)cc1 [Ex. 123, 2-ethyl-3-{4-[3-(di-n-butylamino)propyloxy]benzenesulphonyl}indolizine acid oxalate]
activity at 1 µM (10^-6 M): 5.8% | activity at 0.1 µM (10^-7 M): 16.8% | activity at 0.01 µM (10^-8 M): 54.6% | activity at 0.001 µM: 75.3%

CCCCN(CCCC)CCCOc1ccc(S(=O)(=O)c2ncsc2-c2ccccc2)cc1 [Ex. 124, 4-{4-[3-(di-n-butylamino)propyloxy]benzenesulphonyl}-5-phenyl-thiazole acid oxalate]
activity at 1 µM (10^-6 M): 13.7% | activity at 0.1 µM (10^-7 M): 66.7% | activity at 0.01 µM (10^-8 M): 90.6%
